Data on 15 molecules can be found in ChEMBL document CHEMBL4651402, “Screening of ~5500 FDA-approved drugs and clinical candidates for anti-SARS-CoV-2 activity” (2021).

Series [1] concerns SARS-CoV-2. Description: microbe, parasite or virus in culture. The settings on record: Severe acute respiratory syndrome coronavirus 2, Vero C1008, 48 h.
Series [2] deals with SARS-CoV-2. Description: microbe, parasite or virus in culture. The series is classed as functional, organism-based, Chlorocebus sabaeus, Vero C1008. The settings on record: Severe acute respiratory syndrome coronavirus 2, Vero C1008, 48 h.
A short description of the next series: in vitro. The conditions noted are these: chlorocebus sabaeus.
Where [3] appears, read: Vero E6 (Vero C1008) cells, CC50.
The mark [4] stands for this setting: Vero E6 (Vero C1008) cells, pCC50.

Take `Cc1cc(C)c2nc(-c3cnc(NCCCC4CCN(C)CC4)nc3C)[nH]c2c1` [TOREFORANT]: the IC50 with SARS-CoV-2 [1] was more than 25.1 µM; in the series with SARS-CoV-2 [1] (read-out: pIC50 (converted)), more than 25.1 µM; in the series on SARS-CoV-2 [2] (read-out: IC50) it was more than 50.1 µM; in the series on SARS-CoV-2 [2] (read-out: pIC50 (converted)) it was more than 50.1 µM. Further, the CC50 at 48 h in the series “in vitro” (setting [3]) and in the series “in vitro” (setting [4]) was 22.4 µM in each case.

As for `CCOC(=O)Nc1ccc(NCc2ccc(F)cc2)nc1N` [FLUPIRTINE], the IC50 in the series on SARS-CoV-2 [1], in the series on SARS-CoV-2 [1] (read-out: pIC50 (converted)), with SARS-CoV-2 [2] (read-out: IC50) and in the series with SARS-CoV-2 [2] (read-out: pIC50 (converted)) was more than 100 µM each time. Further, the CC50 at 48 h in “in vitro” (setting [3]) and in “in vitro” (setting [4]) was more than 100 µM in each case.

Regarding `CN1C2CCC1CC(OC(c1ccccc1)c1ccc(Cl)cc1)C2` (centres undefined), the IC50 in the series on SARS-CoV-2 [1] was 9.77 µM; in the series with SARS-CoV-2 [1] (read-out: pIC50 (converted)), 9.77 µM; in the series with SARS-CoV-2 [2] (read-out: IC50), more than 100 µM; with SARS-CoV-2 [2] (read-out: pIC50 (converted)) it was more than 100 µM. The CC50 at 48 h in “in vitro” (setting [3]) and in “in vitro” (setting [4]) was 8.13 µM throughout.

Regarding `COc1ccc2c(c1)N(CC(C)CN(C)C)c1ccccc1S2` (centres undefined), the IC50 in the series with SARS-CoV-2 [1], in the series with SARS-CoV-2 [1] (read-out: pIC50 (converted)), in the series on SARS-CoV-2 [2] (read-out: IC50) and in the series on SARS-CoV-2 [2] (read-out: pIC50 (converted)) was more than 100 µM each time. Besides, the CC50 at 48 h in the series “in vitro” (setting [3]) and in the series “in vitro” (setting [4]) was 22.9 µM in each case.

Consider `CNCCCC1c2ccccc2C=Cc2ccccc21` [PROTRIPTYLINE], for which the IC50 with SARS-CoV-2 [1], in the series on SARS-CoV-2 [1] (read-out: pIC50 (converted)), in the series with SARS-CoV-2 [2] (read-out: IC50) and in the series with SARS-CoV-2 [2] (read-out: pIC50 (converted)) was more than 100 µM each time. For the same molecule, the CC50 at 48 h was 26.3 µM in “in vitro” (vero c1008, CC50) and 26.3 µM in the series “in vitro” (vero c1008, pCC50).

In the case of `COc1cc(C(=O)OCCN2CCN(CCCN3c4ccccc4Sc4ccc(Cl)cc43)CC2)cc(OC)c1OC` [METOFENAZATE], the IC50 with SARS-CoV-2 [1] is 18.6 µM; in the series with SARS-CoV-2 [1] (read-out: pIC50 (converted)) it was 18.6 µM; in the series with SARS-CoV-2 [2] (read-out: IC50) it was more than 100 µM; in the series with SARS-CoV-2 [2] (read-out: pIC50 (converted)), more than 100 µM. Besides, the CC50 at 48 h in the series “in vitro” (setting [3]) and in “in vitro” (setting [4]) was more than 100 µM throughout.

For the molecule `Oc1cc2c(cc1O)[C@H]1c3ccccc3CN[C@@H]1CC2` [DIHYDREXIDINE], the IC50 is 7.94 µM in the series on SARS-CoV-2 [1], 7.94 µM in the series on SARS-CoV-2 [1] (read-out: pIC50 (converted)), more than 100 µM in the series with SARS-CoV-2 [2] (read-out: IC50) and more than 100 µM with SARS-CoV-2 [2] (read-out: pIC50 (converted)). For the same molecule, the CC50 at 48 h in the series “in vitro” (setting [3]) and in the series “in vitro” (setting [4]) was 18.6 µM each time.

Turning to `COc1ccc(C[C@@H]2c3cc(OC)c(OC)cc3CC[N@+]2(C)CCC(=O)OCCCCCOC(=O)CC[N@@+]2(C)CCc3cc(OC)c(OC)cc3[C@H]2Cc2ccc(OC)c(OC)c2)cc1OC`, the IC50 with SARS-CoV-2 [2] (read-out: IC50) and in the series on SARS-CoV-2 [2] (read-out: pIC50 (converted)) was more than 20 µM each time. Also, the CC50 at 48 h in “in vitro” (setting [3]) and in “in vitro” (setting [4]) was more than 20 µM throughout.

On to `CO/N=C(\C(=O)N[C@@H]1C(=O)N2C(C(=O)OC(C)OC(C)=O)=C(COC(N)=O)CS[C@H]12)c1ccco1` (some centres undefined) [CEFUROXIME AXETIL], for which the IC50 in the series on SARS-CoV-2 [2] (read-out: IC50) and in the series with SARS-CoV-2 [2] (read-out: pIC50 (converted)) was more than 20 µM throughout. In addition, the CC50 at 48 h in the series “in vitro” (setting [3]) and in the series “in vitro” (setting [4]) was more than 20 µM in each case.

`O=C1OC2(c3ccc(O)cc3Oc3cc(O)ccc32)c2ccccc21` [FLUORESCEIN]: the IC50 with SARS-CoV-2 [2] (read-out: IC50) and with SARS-CoV-2 [2] (read-out: pIC50 (converted)) was more than 0.309 µM each time. Further, the CC50 at 48 h in “in vitro” (setting [3]) and in the series “in vitro” (setting [4]) was more than 20 µM throughout.

In the case of `CC1(C)S[C@@H]2[C@H](NC(=O)C(C(=O)O)c3ccccc3)C(=O)N2[C@H]1C(=O)O` (some centres undefined) [CARBENICILLIN], the IC50 in the series with SARS-CoV-2 [2] (read-out: IC50) and in the series on SARS-CoV-2 [2] (read-out: pIC50 (converted)) was more than 20 µM each time. Further, the CC50 at 48 h in “in vitro” (setting [3]) and in the series “in vitro” (setting [4]) was more than 20 µM in each case.

Regarding `CCOc1cc2ncc(C#N)c(Nc3ccc(OCc4ccccn4)c(Cl)c3)c2cc1NC(=O)/C=C/CN(C)C` [NERATINIB], the IC50 with SARS-CoV-2 [2] (read-out: IC50) and in the series on SARS-CoV-2 [2] (read-out: pIC50 (converted)) was more than 10 µM throughout. In addition, the CC50 at 48 h in the series “in vitro” (setting [3]) and in “in vitro” (setting [4]) was more than 10 µM throughout.

For the molecule `CN(C)C/C=C(\c1ccc(Br)cc1)c1cccnc1`, the IC50 in the series with SARS-CoV-2 [1] and in the series with SARS-CoV-2 [1] (read-out: pIC50 (converted)) was more than 20 µM throughout. Also, the CC50 at 48 h in the series “in vitro” (setting [3]) and in “in vitro” (setting [4]) was more than 10 µM throughout.

In the case of `CCOC(=O)O[C@]1(C(=O)OCCl)CC[C@H]2[C@@H]3CCC4=CC(=O)C=C[C@]4(C)[C@H]3[C@@H](O)C[C@@]21C` [LOTEPREDNOL ETABONATE], the IC50 with SARS-CoV-2 [2] (read-out: IC50) and with SARS-CoV-2 [2] (read-out: pIC50 (converted)) was more than 20 µM in each case. The CC50 at 48 h in the series “in vitro” (setting [3]) and in the series “in vitro” (setting [4]) was more than 20 µM throughout.

Regarding `CCOC(=O)C1=C(C)NC(C)=C(C(=O)OCC)C1c1ccccc1/C=C/C(=O)OC(C)(C)C` [LACIDIPINE], the IC50 in the series with SARS-CoV-2 [1] and in the series with SARS-CoV-2 [1] (read-out: pIC50 (converted)) was more than 10 µM in each case. The CC50 at 48 h in “in vitro” (setting [3]) and in the series “in vitro” (setting [4]) was 7.24 µM each time.
